Molecules are shown by their SMILES.

Here are results for two compounds from patent US11090304B2 (Amgen Inc., priority 2018, dated 2021).

Experiment [1] addresses GDP-bound KRAS protein (aa 1-169), containing both G12C and C118A amino acid substitutions (Homo sapiens, UniProt P01116, C118A/G12C). The experiment can be described thus: Coupled nucleotide exchange assay (SOS-mediated, AlphaScreen). The format is biochemical. The following applies: for Coupled exchange IC50 (2 h): 2 h compound pre-incubation.
Experiment [2] deals with Phosphorylation of ERK1/2 in MIA PaCa-2 cells. Description: Phospho-ERK1/2 MSD assay in MIA PaCa-2 cells. Format: cell-based. Particulars: Homo sapiens, MIA PaCa-2, 2 h, read-out: p-ERK IC50 (2 h; MIA PaCa-2), 2 h compound treatment. The procedure, abridged: (§1)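 IC50 comes from a 4-parameter logistic fit of MSD phospho-ERK1/2 signal in lysates. Before lysis, MIA PaCa-2 or A549 cells were exposed to titrated compound for 2 or 4 h at 37 °C, followed by a 10 min 10 ng/mL EGF stimulus.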

Experiment [3] relates to Phosphorylation of ERK1/2 in A549 cells. Description: Phospho-ERK1/2 MSD assay in A549 cells. The format is cell-based. Particulars: Homo sapiens, A549, 2 h, read-out: p-ERK IC50 (2 h; A549), 2 h compound treatment. An outline of the steps:
as §1

Sequence of GDP-bound KRAS protein (aa 1-169), containing both G12C and C118A amino acid substitutions (P01116 1-169 isoform P01116-2 G12C/C118A): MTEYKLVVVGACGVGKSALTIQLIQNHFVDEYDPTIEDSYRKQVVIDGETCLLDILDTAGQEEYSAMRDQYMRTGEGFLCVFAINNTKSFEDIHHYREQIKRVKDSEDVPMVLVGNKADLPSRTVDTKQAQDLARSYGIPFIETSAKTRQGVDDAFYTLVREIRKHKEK

As to `C=CC(=O)N1CCN(c2nc(=O)n(-c3c(CC)cccc3CC)c3nc(C4CC4)c(Cl)cc23)[C@@H](C)C1` [Example 94, 6-Chloro-7-cyclopropyl-1-(2,6-diethylphenyl)-4-((2S)-2-methyl-4-(2-propenoyl)-1-piperazinyl)pyrido[2,3-d]pyrimidin-2(1H)-one], in experiment [1] (5 min compound pre-incubation), the “Coupled exchange IC50 (5 min)” value stood at 0.781 µM. The “Coupled exchange IC50 (2 h)” value in experiment [1] came to 0.112 µM. The IC50 in experiment [2] is 1.51 µM; in experiment [3] it was no less than 10 µM.

Take `C=CC(=O)N1CCN(c2nc(=O)n(-c3ccc(OCCN=[N+]=[N-])cc3C(C)C)c3nc(N4CCCCC4)c(Cl)cc23)[C@@H](C)C1` [Example 117, 1-(4-(2-Azidoethoxy)-2-(2-propanyl)phenyl)-6-chloro-4-((2S)-2-methyl-4-(2-propenoyl)-1-piperazinyl)-7-(1-piperidinyl)pyrido[2,3-d]pyrimidin-2(1H)-one]: the “Coupled exchange IC50 (2 h)” value in experiment [1] was “nda | 0.916 μM”. In addition, the IC50 in experiment [2] is 4.88 µM; in experiment [3] it was no less than 10 µM.
